{
  "source": "patent US20240261236A1",
  "about": "“METHODS OF USING NMDA RECEPTOR ANTAGONISTS” (Seelos Therapeutics, Inc., priority 2021, published 2024)",
  "tested_on": "adults with major depressive disorder (MDD) who are at imminent risk of suicide",
  "assay": "MADRS Total, Phase 2 Part 1 open-label",
  "assay_type": "in vivo, human",
  "details": "for MADRS mean score: baseline 39.4; for MADRS remission rate (a score of less than 12) / MADRS response rate: summary through Day 29/30",
  "text": "The Montgomery-Åsberg Depression Rating Scale (MADRS) is a diagnostic questionnaire that can be used to measure the severity of a depressive episode in a subject. In some embodiments, the MADRS can be used to measure suicidal ideation. For example, the MADRS includes 10 items directed to the following: 1) apparent sadness (e.g., representing despondency, gloom and despair that is more than just ordinary transient low spirits that is reflected in speech, facial expression, and posture); 2) reported sadness (e.g., representing reports of depressed mood, regardless of whether it is reflected in appearance or not and can include low spirits, despondency or the feeling of being beyond help and without hope); 3) inner tension (e.g., representing feelings of ill-defined discomfort, edginess, inner turmoil, mental tension mounting to either panic, dread or anguish); 4) reduced sleep (e.g., representing the experience of reduced duration or depth of sleep compared to the subject's own normal pattern when well); 5) reduced appetite (e.g., representing the feeling of a loss of appetite compared with when-well); 6) concentration difficulties (e.g., representing difficulties in collecting one's thoughts mounting to an incapacitating lack of concentration); 7) lassitude (e.g., representing difficulty in getting started or slowness in initiating and performing everyday activities); 8) inability to feel (e.g., representing the subjective experience of reduced interest in the surroundings, or activities that normally give pleasure, and the ability to react with adequate emotion to circumstances or people is reduced); 9) pessimistic thoughts (e.g., representing thoughts of guilt, inferiority, self-reproach, sinfulness, remorse and ruin); and 10) suicidal thoughts (e.g., representing the feeling that life is not worth living, that a natural death would be welcome, suicidal thoughts, and preparations for suicide). Each item is rated from 0 units to 6 units, with 0 reflecting that the subject is not at all as described by the item and 6 reflecting that the subject is extremely like what is described by the item. […] As another example, for suicidal thoughts, a score of 0 units can indicate that the subject enjoys life or takes it as it comes; a score of 2 units can indicate that the subject is weary of life and may have fleeting suicidal thoughts; a score of 4 units can indicate that the subject feels he or she would probably be better off dead (e.g., suicidal thoughts are common, and suicide is considered as a possible solution, but without specific plans or intention); and a score of 6 units can indicate that the subject has explicit plans for suicide when there is an opportunity (e.g., the subject has made active preparations for suicide). Thus, the total score, after summation of each score for each item, is on a scale of 0 units to 60 units.\nThe study schedule is identical for Parts 1 and 2. After admission to the emergency room or hospital, each subject will participate in a 1 to 2 day screening phase, a 16-day treatment phase including SOC during which study drug will be administered 2 times per week, for a total of 5 doses across the 16-day treatment period and a 2-week safety follow-up phase for a total of up to 5 weeks of study participation. Subjects will be treated as inpatients for approximately 7 days (including screening), and assuming the subject meets readiness for discharge criteria, will be discharged on Day 6 to continue the trial as outpatients, provided it is clinically appropriate to do so. Subjects will return to the clinic to receive study drug and to undergo study assessments 2 times per week until Day 16. Subjects will be evaluated for efficacy using multiple psychometric scales and for safety using clinical laboratory assessments, electrocardiograms (ECGs), vital signs, and physical examinations. […]",
  "data": [
    {"smiles": "CNC1(c2ccccc2Cl)CCCCC1=O", "note": "(racemic) [intranasal racemic ketamine, 1:1 mixture of the two enantiomers of ketamine: (R)-2-(2-chlorophenyl)-2-(methylamino)cyclohexanone and (S)-2-(2-chlorophenyl)-2-(methylamino)cyclohexanone]", "values": [
      {"measurement": "MADRS Total", "setting": "90 mg IN+SOC, Subject 1, 24 hours post-administration, baseline 35 units", "value": 8, "unit": "units"},
      {"measurement": "MADRS Total", "setting": "90 mg IN+SOC, Subject 2, 24 hours post-administration, baseline 38 units", "value": 15, "unit": "units"},
      {"measurement": "MADRS Total", "setting": "90 mg IN+SOC, Subject 2, Day 8, after second dose on Day 4", "value": 16, "unit": "units"},
      {"measurement": "MADRS Total reduction", "setting": "90 mg IN+SOC, both subjects, 24 hours", "value": "> 50", "unit": "%"},
      {"measurement": "MADRS mean (SD) change from baseline", "setting": "17 subjects enrolled, 24 hours post-dose", "value": "−24.9 (8.34)"},
      {"measurement": "MADRS mean (SD) change from baseline", "setting": "17 subjects enrolled, Day 16", "value": "−31.6 (7.31)"},
      {"measurement": "subjects who experienced MADRS remission", "setting": "24 hours post-dose", "value": 35.5, "unit": "%"},
      {"measurement": "subjects who experienced MADRS response", "setting": "24 hours post-dose", "value": 76.5, "unit": "%"},
      {"measurement": "MADRS mean score", "setting": "Day 1", "value": 14.5},
      {"measurement": "subjects who experienced MADRS remission", "setting": "Day 16", "value": 78.6, "unit": "%"},
      {"measurement": "subjects who experienced MADRS response", "setting": "Day 16", "value": 92.9, "unit": "%"},
      {"measurement": "MADRS mean score", "setting": "Day 16", "value": 7.4},
      {"measurement": "MADRS mean score", "setting": "Day 29", "value": 6.3},
      {"measurement": "MADRS mean (SD) change from baseline", "setting": "final follow-up on Day 29/30", "value": "−32.1 (7.4)"},
      {"measurement": "mean MADRS score", "setting": "final follow-up on Day 29/30", "value": "6.3 (6.60)"},
      {"measurement": "subjects who experienced MADRS remission", "setting": "study end (Day 29/30)", "value": 76.9, "unit": "%"},
      {"measurement": "subjects who experienced MADRS response", "setting": "study end (Day 29/30)", "value": 100, "unit": "%"},
      {"measurement": "MADRS remission rate (a score of less than 12)", "setting": "Day 1", "value": 23.5, "unit": "%"},
      {"measurement": "MADRS response rate", "setting": "Day 1", "value": 76.5, "unit": "%"},
      {"measurement": "MADRS remission rate (a score of less than 12)", "setting": "Day 16", "value": 78.6, "unit": "%"},
      {"measurement": "MADRS response rate", "setting": "Day 16", "value": 92.9, "unit": "%"},
      {"measurement": "MADRS response rate", "setting": "Day 29, 14 days after the last dose on Day 15", "value": 100, "unit": "%"}
    ]}
  ]
}
